Experimental findings from PMC3419744, “Anti-Tumor Activity of a Novel HS-Mimetic-Vascular Endothelial Growth Factor Binding Small Molecule” (PLoS ONE, 2012) are described below.

In one assay the test system is LM8 cells. The experiment in a line: Proliferation assay (TetraColor One), LM8 cells. The format is cell-based, murine. To be noted: for IC50: 48 h, NS = not significant, read-out: IC50, inhibition of proliferation, LM8. How it is done:
(§1) Two tumor cell lines such as LM8, LM8G7, and UV♀2 endothelial were used to evaluate the anti-proliferative activity of the compounds. UV♀2 (1×10^4 cells) or LM8 or LM8G7 cells (5×10^3 cells) were seeded in 96-well plate and incubated overnight at 37°C. […] 5 µL of TetraColor One reagent was added and incubated for an additional 2–4 h and the absorbance at 450 nm (Bio-Rad) was measured. […] The results were expressed as a percentage of viable cells relative to cells treated with DMSO. The viability of the cells was expressed in percentage terms and IC50 value was calculated.

The next assay concerns LM8G7 cells. Briefly: Proliferation assay (TetraColor One), LM8G7 cells. The assay is classed as cell-based, murine. To be noted: for IC50: NS = not significant, read-out: IC50, inhibition of proliferation, LM8G7. As for the experimental part:
as §1

The subject of another assay is UV♀2 cells. Briefly: Proliferation assay (TetraColor One), UV♀2 endothelial cells. To be noted: for IC50: 48 h, serum-containing conditions (10%FBS), NS = not significant, read-out: IC50, inhibition of proliferation, UV♀2. The assay is classed as cell-based, mouse. How it is done:
as §1

In the next assay the target is T1, VEGF (Homo sapiens, UniProt P15692).
T1 construct: purchased Wako Pure Chemicals Co. (Osaka, Japan)
T1 sequence (P15692 1-191 isoform P15692-4): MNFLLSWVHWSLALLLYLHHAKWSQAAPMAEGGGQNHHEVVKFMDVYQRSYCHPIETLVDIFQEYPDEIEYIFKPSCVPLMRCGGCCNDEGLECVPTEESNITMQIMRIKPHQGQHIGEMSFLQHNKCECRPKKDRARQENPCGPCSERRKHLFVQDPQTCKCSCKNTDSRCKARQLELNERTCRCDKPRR
The experiment in a line: SPR imaging of immobilized small molecules binding to VEGF. To be noted: compounds immobilized on chip, growth factor 50 µg/mL. As for the experimental part: (§2) The chip was washed successively with ethanol, water, and ethanol. Then the chip is air dried to obtain the photo reactive chip. The compounds 1–9 were spotted on the chip (10 mM), washed, and dried in vacuo, and then irradiated at 365 nm under a UV transmission filter (Sigma-Koki, Japan). The compounds were immobilized onto the photo-reactive linker that bound to the gold-surface of the glass chip was set into an SPR imaging instrument (TOYOBO), and each growth factor (50 µg/mL) was injected onto the array surface at 0.1 ml/min and incubated for 10 min. The SPR image and signal data were collected with an SPR analysis program (TOYOBO). The SPR difference image was constructed by using the Scion Image program (Scion, MD).

In assay [1] the target is T2, VEGF165 binding to immobilised heparin (Homo sapiens, UniProt P15692).
T2 construct: purchased Wako Pure Chemicals Co. (Osaka, Japan)
T2 sequence (P15692 1-191 isoform P15692-4): T1 sequence (P15692 1-191 isoform P15692-4)
Briefly: BIAcore analysis of VEGF165 binding to immobilised heparin. To be noted: VEGF165 250 nM. How it is done: The heparin-immobilized sensor chip was prepared as reported earlier. […] The flow rate was kept at a moderate speed ([…]) according to the manufacturer's recommendations.
(In general: SPR reads the build-up and loss of mass on a sensor chip optically.)

For a further assay, the target named is T3, FGF-2 (Homo sapiens, UniProt P09038).
T3 construct: purchased Wako Pure Chemicals Co. (Osaka, Japan)
T3 sequence (P09038 134-288): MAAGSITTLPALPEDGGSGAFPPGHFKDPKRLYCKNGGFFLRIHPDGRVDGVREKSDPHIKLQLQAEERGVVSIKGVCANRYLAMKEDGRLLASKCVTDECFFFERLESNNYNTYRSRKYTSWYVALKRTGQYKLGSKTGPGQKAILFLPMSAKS
Briefly: SPR imaging of immobilized small molecules binding to FGF-2. To be noted: compounds immobilized on chip, growth factor 50 µg/mL. As for the experimental part:
as §2

Where [2] appears, read: Mus musculus, LM8G7, 48 h, 48 h.

Entries after “also recorded” stand apart in the source; their conditions may differ. Read-outs that look alike come from different tables or passages of the source. Bounds are passed on as bounds.

Regarding `N.N.[Cl][Pt][Cl]` [Cisplatin, reference compound], the IC50 with LM8 cells worked out at 30 ± 24 µM; with LM8G7 cells (48 h), 15 ± 0.6 µM; with UV♀2 cells it was 12 ± 0.4 µM.
On to `Cc1ccc(C(=O)Nc2ccc(S(=O)(=O)O)c3cc(S(=O)(=O)O)cc(S(=O)(=O)O)c23)cc1NC(=O)c1cccc(NC(=O)Nc2cccc(C(=O)Nc3cc(C(=O)Nc4ccc(S(=O)(=O)O)c5cc(S(=O)(=O)O)cc(S(=O)(=O)O)c45)ccc3C)c2)c1` [Suramin, reference compound], for which, in the assay with LM8 cells, the “inhibition of proliferation of LM8 cells (in words)” value is “comparable with the inhibitory activity of compound 8”. Also, the IC50 was 12 ± 2.8 µM in the assay with LM8 cells (Mus musculus); 14 ± 24 µM in the assay with LM8G7 cells (Mus musculus, LM8G7, 48 h); 34 ± 1.4 µM with UV♀2 cells (Mus musculus, Endothelial cell). Besides, in the assay with LM8G7 cells, the “inhibition of proliferation of LM8G7 cells (in words)” value was “comparable with the inhibitory activity of compound 8”.
On to `Cc1nnc(S)n1N=Cc1c(F)cccc1F` [compound 5, 4-[(2,6-Difluoro-benzylidene)-amino]-5-methyl-4H-[1,2,4]triazole-3-thiol], for which the IC50 was 36 ± 6.4 µM with LM8 cells (Mus musculus); greater than 100 µM in the assay with LM8G7 cells (setting [2]); 45 ± 2.1 µM with UV♀2 cells (Mus musculus, Endothelial cell).
`CCc1nnc(S)n1N=Cc1c(F)cccc1F` [compound 6, 4-[(2,6-Difluoro-benzylidene)-amino]-5-ethyl-4H-[1,2,4]triazole-3-thiol]: at VEGF, the “binding to VEGF (SPR signal)” value is reported as “significantly; also recorded: weak binding”. Further, the IC50 worked out at 64 ± 6.7 µM with LM8 cells (Mus musculus); 23 ± 0.5 µM with LM8G7 cells (setting [2]); 14 ± 4.6 µM with UV♀2 cells (Mus musculus, Endothelial cell). In addition, in the assay with UV♀2 cells, the “effect on proliferation of UV♀2 cells (in words)” value is “moderately inhibited”.
Turning to `Fc1cccc(F)c1C=Nn1c(S)nnc1-c1ccccc1` [compound 7, 4-[(2,6-difluoro-benzylidene)-amino]-5-phenyl-4H-[1,2,4]triazole-3-thiol], the “binding to VEGF (SPR signal)” value at VEGF is on record as “does not bind VEGF”. Moreover, the “inhibition of binding of VEGF165 to immobilised heparin” value in assay [1] was “failed to inhibit the binding of VEGF to heparin”. Besides, the IC50 is greater than 100 µM with LM8 cells (Mus musculus); greater than 100 µM in the assay on LM8G7 cells (setting [2]); greater than 100 µM with UV♀2 cells (Mus musculus, Endothelial cell).
Consider `CCCCc1nc(Cl)c(C=O)n1Cc1ccc([N+](=O)[O-])cc1` [compound 8, 2-butyl-5-chloro-3-(4-nitro-benzyl)-3H-imidazole-4-carbaldehyde], for which the “binding to VEGF (SPR signal)” value on VEGF is given as “very strongly; also recorded: strongly”. The “binding to FGF-2 (SPR signal)” value on FGF-2 was “significantly, although with weaker affinity compared to its VEGF binding; also recorded: weakly”. Besides, the “inhibition of binding of VEGF165 to immobilised heparin” value in assay [1] is “inhibited the binding of VEGF165 to the immobilised heparin”.
In the case of `CCCCc1nc(Cl)c(C=O)n1Cc1cc2c(cc1C)OCO2` [compound 9], the IC50 in the assay on LM8 cells is 46 ± 6.7 µM; in the assay on LM8G7 cells (48 h), greater than 100 µM; in the assay on UV♀2 cells, greater than 100 µM.
